For 18 compounds, IC20 results are on record in patent EP0296264A1, “Aminopropanol derivatives of 3-(2-hydroxyphenyl)-1-propanone, process for their preparation and medicines containing these compounds” (Helopharm W. Petrik GmbH & Co.KG., priority 1987, dated 1988).

A short description of series [1]: Effect on contraction force of the heart, guinea pig papillary muscle (negative inotropy). In kind it is cell-based, Meerschweinchen. The note with it: concentration that reduces the contraction of the papillary muscle by 20 %, read-out: C20_CF. The source says: Die Wirkung auf die Kontraktionskraft des Herzens wurde am Meerschweinchenpapillarmuskel untersucht. Hämodynamische Studien wurden bei gesunden, wie auch akut infarzierten Hunden durchgeführt.

For series [2], the system named is Purkinje-Fasern aus Hundeherzen. Description: Electrophysiological study on Purkinje fibres from dog hearts (Vmax, conduction delay). In kind it is cell-based, Hunde. The note with it: Canis lupus familiaris, read-out: C20_Vmax. The source says: Die antiarrhythmische Wirksamkeit der erfindungsgemäßen Verbindungen wurde sowohl anhand von elektrophysiologischen Studien an Purkinje-Fasern aus Hundeherzen sowie mit Hilfe von Ouabain-induzierten ventrikulären Tachykardien bei Hunden bestimmt. […]
Als zusätzliches Kriterium wurde der Vorzeitigkeitsindex (Prematurity-Faktor) bestimmt, der die erwünschte Wirksamkeit der erfindungsgemäßen Verbindungen bei frühzeitig einfallenden Extrasystolen charakterisiert.

Each structure is given as a SMILES string. Counter-ions that a name gives are not always drawn.

On to `CCCNCC(O)COc1ccccc1CCC(=O)c1ccc(OC)c(OC)c1` (stereo not drawn) [Beispiel 1, 1-(3,4-Dimethoxyphenyl)-3-[2ʹ-(2-hydroxy-3-n-propylamino-propoxy)-phenyl]-1-propanon-hydrochlorid], for which the IC20 stood at 15 µM in series [1] and 12.5 µM in series [2].

Consider `CCC(C)(C)NCC(O)COc1ccccc1CCC(=O)c1ccc(OC)c(OC)c1` (stereo not drawn) [Beispiel 2, 1-(3,4-Dimethoxyphenyl)-3-[2ʹ-(2-hydroxy-3-tert.-pentylamino-propoxy)-phenyl]-1-propanon-hydrochlorid], for which the IC20 in series [1] is 8 µM; in series [2], 3.6 µM.

Regarding `COc1ccc(C(=O)CCc2ccccc2OCC(O)CNC(C)C)cc1OC` (stereo not drawn) [Beispiel 4, 1-(3,4-Dimethoxyphenyl)-3-[2ʹ-(2-hydroxy-3-isopropylamino-propoxy)-phenyl]-1-propanon-hydrochlorid], the values for the IC20 in series [1] and in series [2] were 22 µM and 4.8 µM, respectively.

Take `COc1ccc(C(=O)CCc2ccccc2OCC(O)CNC(C)(C)C)cc1OC` (stereo not drawn) [Beispiel 5, 1-(3,4-Dimethoxyphenyl)-3-[2ʹ-(2-hydroxy-3-tert.-butylamino-propoxy)-phenyl]-1-propanon-hydrochlorid]: the IC20 in series [1] came out at 12 µM; in series [2], 4.4 µM.

In the case of `COc1ccc(C(=O)CCc2ccccc2OCC(O)CN2CCCCC2)cc1OC` (stereo not drawn) [Beispiel 6, 1-(3,4-Dimethoxyphenyl)-3-[2ʹ-(2-hydroxy-3-piperidino-propoxy)-phenyl]-1-propanon-hydrochlorid], the IC20 in series [1] turned out to be 20 µM; in series [2], 11.3 µM.

With `COc1ccc(C(=O)CCc2ccccc2OCC(O)CNCC(C)O)cc1OC` (stereo not drawn) [Beispiel 7, 1-(3,4-Dimethoxyphenyl)-3-[2ʹ-(2-hydroxy-3-(2ʺ-hydroxypropylamino)-propoxy)-phenyl]-1-propanon-hydrochlorid], the results for the IC20 in series [1] and in series [2] were 18 µM and 5.7 µM, respectively.

Turning to `COc1ccc(C(=O)CCc2ccccc2OCC(O)CNCCO)cc1OC` (stereo not drawn) [Beispiel 8, 1-(3,4-Dimethoxyphenyl)-3-[2ʹ-(2-hydroxy-3-(2ʺ-hydroxyethylamino)-propoxy)-phenyl]-1-propanon-hydrochlorid], the figures for the IC20 in series [1] and in series [2] were 13 µM and 8.3 µM, respectively.

For `CCC(CO)NCC(O)COc1ccccc1CCC(=O)c1ccc(OC)c(OC)c1` (stereo not drawn) [Beispiel 9, 1-(3,4-Dimethoxyphenyl)-3-[2ʹ-(2-hydroxy-3-(1ʺ-hydroxybut-2-ylamino)-propoxy)-phenyl]-1-propanon-oxalat], the values for the IC20 in series [1] and in series [2] were 25 µM and 10.2 µM, respectively.

Turning to `COc1cc(C(=O)CCc2ccccc2OCC(O)CNC(C)C)cc(OC)c1OC` (stereo not drawn) [Beispiel 12, 1-(3,4,5-Trimethoxyphenyl)-3-[2ʹ-(2-hydroxy-3-isopropylamino-propoxy)-phenyl]-1-propanon-hydrochlorid], the IC20 was 18 µM in series [1] and 5.8 µM in series [2].

In the case of `COc1cc(C(=O)CCc2ccccc2OCC(O)CNC2CCCCC2)cc(OC)c1OC` (stereo not drawn) [Beispiel 16, 1-(3,4,5-Trimethoxyphenyl)-3-[2ʹ-(2-hydroxy-3-cyclohexylamino-propoxy)-phenyl]-1-propanon-hydrochlorid], the IC20 amounted to 9 µM in series [1] and 11.9 µM in series [2].

Turning to `COc1cccc(C(=O)CCc2ccccc2OCC(O)CNC(C)C)c1` (stereo not drawn) [Beispiel 24, 1-(3-Methoxyphenyl)-3-[2ʹ-(2-hydroxy-3-isopropylamino-propoxy)-phenyl]-1-propanon-hydrochlorid], the IC20 in series [1] came to 10 µM; in series [2], 1.6 µM.

With `CCCNCC(O)COc1ccccc1CCC(=O)c1cccc(OC)c1` (stereo not drawn) [Beispiel 26, 1-(3-Methoxyphenyl)-3-[2ʹ-(2-hydroxy-3-n-propylamino-propoxy)-phenyl]-1-propanon-hydrochlorid], the IC20 turned out to be 3 µM in series [1] and 1.7 µM in series [2].

Regarding `COc1cccc(C(=O)CCc2ccccc2OCC(O)CNC(C)(C)C)c1` (stereo not drawn) [Beispiel 27, 1-(3-Methoxyphenyl)-3-[2ʹ-(2-hydroxy-3-tert.-butylamino-propoxy)-phenyl]-1-propanon-hydrochlorid], the IC20 in series [1] worked out at 4 µM; in series [2], 1.6 µM.

On to `COc1ccccc1C(=O)CCc1ccccc1OCC(O)CNC(C)(C)C` (stereo not drawn) [Beispiel 38, 1-(2-Methoxyphenyl)-3-[2ʹ-(2-hydroxy-3-tert.-butylamino-propoxy)-phenyl]-1-propanon-hydrochlorid], for which the IC20 in series [1] came to 7 µM; in series [2], 1.7 µM.

As for `Cc1ccc(C(=O)CCc2ccccc2OCC(O)CNC(C)(C)C)cc1` (stereo not drawn) [Beispiel 44, 1-(4-Methylphenyl)-3-[2ʹ-(2-hydroxy-3-tert.-butylamino-propoxy)-phenyl]-1-propanon-hydrochlorid], the IC20 in series [1] was 6 µM; in series [2], 2.6 µM.

Take `O=C(CCc1ccccc1OCC(O)CNC1CCCCC1)c1ccccc1` (stereo not drawn) [Beispiel 46, 1-Phenyl-3-[2ʹ-(2-hydroxy-3-cyclohexylamino-propoxy)-phenyl]-1-propanon-hydrochlorid]: the IC20 in series [1] came to 2 µM; in series [2] it was 2.2 µM.

Regarding `O=C(CCc1ccccc1OCC(O)CN1CCCCC1)c1ccccc1` (stereo not drawn) [Beispiel 47, 1-Phenyl-3-[2ʹ-(2-hydroxy-3-piperidino-propoxy)-phenyl]-1-propanon-hydrochlorid], the results for the IC20 in series [1] and in series [2] were 2 µM and 0.3 µM, respectively.

As for `CC(C)(C)NCC(O)COc1ccccc1CCC(=O)c1ccccc1` (stereo not drawn) [Beispiel 48, 1-Phenyl-3-[2ʹ-(2-hydroxy-3-tert.-butylamino-propoxy)-phenyl]-1-propanon-hydrochlorid], the IC20 was 3 µM in series [1] and 1 µM in series [2].
